# Patent publication US7888079B2, “Nε-acyl-L-lysine-specific aminoacylase” (Ajinomoto Co., Inc., priority 2005, dated 2011)
# Where two headings read alike, the source gives them in different places.
# Legend:
# [1] = system: aminoacylase of the present invention (Nε-acyl-L-lysine-specific aminoacylase); assay: Effect of various inhibitors on the hydrolyzing activity of the aminoacylase; type: biochemical, Streptomyces mobaraensis; settings: hydrolysis activity where nothing was added = 100
# Method: The activity of the enzyme of the present invention can be measured based on a method of measuring Nε-acetyl-L-lysine hydrolysis activity. For example, the activity of the enzyme of the present invention may be measured by incubating the enzyme with a defined concentration of Nε-acetyl-L-lysine as a substrate for 30 minutes at 37° C. (50 mM Tris-HCl buffer, pH 8.0), and assaying the released L-lysine. 1 U (unit) of the enzyme of the present invention is defined as the amount of the enzyme required to hydrolyze 1 micromole of Nε-acetyl-L-lysine per hour when incubated for 30 minutes at 37° C. (50 mM Tris-HCl buffer, pH 8.0) with 4 mM Nε-acetyl-L-lysine as the substrate, and the released L-lysine was assayed by the acidic ninhydrin method.
# The activity of the enzyme of the present invention was measured by incubating the enzyme (50 mM Tris-HCl buffer, pH 8.0) for 30 minutes at 37° C. with a defined concentration of Nε-acetyl-L-lysine as the substrate, and assaying the released L-lysine. 1 U (unit) of the enzyme of the present invention is defined as the amount of the enzyme required to hydrolyze 1 micromole of Nε-acetyl-L-lysine per hour at 37° C. for 30 minutes in 50 mM Tris-HCl buffer, pH 8.0 with 4 mM of Nε-acetyl-L-lysine as the substrate, and the released L-lysine was assayed by acidic ninhydrin method.
# The effects of various inhibitors on hydrolysis activity were compared by the measurement methods described above using a purified enzyme obtained as in Example 2. In Table 2, the enzyme activity is presented as a relative value (%) given 100 as hydrolysis activity where nothing was added.
# [2] = system: aminoacylase of the present invention (Nε-acyl-L-lysine-specific aminoacylase); assay: Effects of metal ions on hydrolysis activity of enzyme dialyzed against 0-phenanthroline solution; type: biochemical, Streptomyces mobaraensis; settings: final concentration 0.1 mM
# [3] = system: enzyme of the present invention (aminoacylase); assay: Reactivity of the enzyme on various N-acetyl-L-amino acids (substrate specificity); type: biochemical, Streptomyces mobaraensis; settings: for Specific activity (relative activity): relative to Nε-acetyl-L-Lys = 100%; for Specific activity: 1-hour reaction, 50 mM Tris-HCl buffer pH 8.2, 37° C., ND: below detection limit
# Method: (§1) The reactivity of the enzyme of the present invention on various N-acetyl-L-amino acids (final concentration 4 mM) was studied to investigate substrate specificity. In Tables 4 and 5 below, the amount (micro mole) of substrate (acetyl-L-amino acid) hydrolyzed per 1 mg of enzyme protein in a 1-hour reaction in 50 mM Tris-HCl buffer (pH 8.2) at 37° C. is given as specific activity.
# S. mobaraensis enzyme = assay: Hydrolysis activity on Nε-acyl-L-lysines with various acyl groups, S. mobaraensis enzyme; type: biochemical, Streptomyces mobaraensis; settings: for Specific activity, S. mobaraensis enzyme: 1-hour reaction, 50 mM Tris-HCl buffer pH 8.2, 37° C.
# Method: as §1
# (§2) Substrate specificity was investigated based on hydrolysis activity on Nε-acyl-L-lysines with various acyl groups.
# A. pestifer enzyme [4] = settings: values marked * from Chibata et al. (1970); cited from earlier work
# A. pestifer enzyme [5] = assay: Hydrolysis activity on Nε-acyl-L-lysines with various acyl groups, A. pestifer enzyme; type: biochemical, Achromobacter pestifer
# Excerpt: as §2
# [6] = hydrolysis activity with nothing added = 100
structure (smiles),measurement,setting,value
c1cnc2c(c1)ccc1cccnc12 [0-phenanthroline],Relative activity (%),[1]; added concentration 1 mM,10.3%
[Ca+2].[Cl-].[Cl-] [CaCl2],Relative activity (%),[2]; [6],110.3%
[Cl-].[Cl-].[Co+2] [CoCl2],Relative activity (%),[2],140.8%
O=S(=O)([O-])[O-].[Cu+2] [CuSO4],Relative activity (%),[2]; [6],67.2%
O[C@@H](CS)[C@@H](O)CS [DTT],Relative activity (%),[1]; added concentration 1 mM,64.7%
O=C(O)CN(CCN(CC(=O)O)CC(=O)O)CC(=O)O [EDTA],Relative activity (%),[1]; added concentration 1 mM,74.6%
O=S(=O)([O-])[O-].[Fe+2] [FeSO4],Relative activity (%),[2]; [6],85.3%
N[C@@H](CCC(=O)N[C@@H](CS)C(=O)NCC(=O)O)C(=O)O [GSH],Relative activity (%),[1]; added concentration 1 mM,80.0%
NC(=O)CI [Iodoacetamide],Relative activity (%),[1]; added concentration 1 mM,83.1%
[Cl-].[K+] [KCl],Relative activity (%),[2]; [6],110.2%
N[C@@H](CS)C(=O)O [L-cysteine],Relative activity (%),[1]; added concentration 1 mM,77.6%
O=S(=O)([O-])[O-].[Mg+2] [MgSO4],Relative activity (%),[2]; [6],121.1%
O=S(=O)([O-])[O-].[Mn+2] [MnSO4],Relative activity (%),[2]; [6],114.1%
CC(=O)N[C@@H](CCCCN)C(=O)O [Nα-acetyl-L-Lys],Specific activity (relative activity),[3],2.1%
same,Specific activity,[3]; substrate 4 mM,70 µmol/mg
CCCCCCCCCCCC(=O)N[C@@H](CCCCN)C(=O)O [Nα-lauroyl-L-Lys],hydrolysis activity of the enzyme of the present invention (in words),S. mobaraensis enzyme,no hydrolysis activity
same,"Specific activity, S. mobaraensis enzyme",S. mobaraensis enzyme,0 µmol/mg
CC(=O)NCCCC[C@H](N)C(=O)O [Nε-acetyl-L-Lys],"Specific activity, A. pestifer enzyme",A. pestifer enzyme [4],"2,700* μmol/mg"
same,Specific activity (relative activity),[3],100%
same,hydrolysis activity on N-acetyl-L-amino acids (in words),[3]; substrate 4 mM,strong hydrolysis activity
same,Specific activity,[3]; substrate 4 mM,3370 µmol/mg
same,"Specific activity, S. mobaraensis enzyme",S. mobaraensis enzyme,"3,370 μmol/mg"
N[C@@H](CCCCNC(=O)c1ccccc1)C(=O)O [Nε-benzoyl-L-Lys],"Specific activity, A. pestifer enzyme",A. pestifer enzyme [4],"15,000* μmol/mg"
same,"Specific activity, S. mobaraensis enzyme",S. mobaraensis enzyme,"1,380 μmol/mg"
N[C@@H](CCCCNC(=O)CCl)C(=O)O [Nε-chloroacetyl-L-lys],"Specific activity, A. pestifer enzyme",A. pestifer enzyme [4],"5,300* μmol/mg"
same,"Specific activity, S. mobaraensis enzyme",S. mobaraensis enzyme,"1,030 μmol/mg"
CCCCCCCCCCCC(=O)NCCCC[C@H](N)C(=O)O [Nε-lauroyl-L-Lys],hydrolysis activity of the enzyme from A. pestifer (in words),A. pestifer enzyme [5],very little hydrolysis activity
same,"Specific activity, A. pestifer enzyme",A. pestifer enzyme [5]; value without literature mark,0.4 µmol/mg
same,"Specific activity, S. mobaraensis enzyme",S. mobaraensis enzyme,28 µmol/mg
CCCCCCCC(=O)NCCCC[C@H](N)C(=O)O [Nε-octanoyl-L-Lys],"Specific activity, A. pestifer enzyme",A. pestifer enzyme [4],"12,500* μmol/mg"
same,"Specific activity, S. mobaraensis enzyme",S. mobaraensis enzyme,570 µmol/mg
O=C(O)c1cc[c]([Hg][Cl])cc1 [PCMB],Relative activity (%),[1]; added concentration 1 mM,86.1%
O=S(=O)([O-])[O-].[Zn+2] [ZnSO4],Relative activity (%),[2]; [6],103.3%
OCCS [β-mercaptoethanol],Relative activity (%),[1]; added concentration 10 mM,87.5%
